Data as given in patent US20050282755A1, “Compositions having antimicrobial activity and uses thereof” (priority 2004, published 2005).
Values after ≈ are worked out from the molar mass of the structure shown. Non-standard residues stand in square brackets, D forms with d. Residues, ends and D or L forms follow the SMILES beside them. *: point of attachment. Lauroyl = CCCCCCCCCCCC(=O)*

How the values were obtained:
Assay type in all cases: cell-based
[1] = test system: Staphylococcus aureus ATCC 29213; assay: MIC, NCCLS M7-A6 broth microdilution, cation-adjusted Mueller Hinton broth (Table 9, no superscript); conditions: ATCC 29213
How it was run: (§1)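 Broth microdilution in cation-adjusted Mueller Hinton broth, log-phase inoculum giving 5×10^5 to 1×10^6 CFU/milliliter per well. Overnight incubation at 37° C. MIC taken as lowest peptide concentration with no visible turbidity versus a no-peptide control.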

Salmonella dublin (Lane) = assay: MIC, NCCLS M7-A6 broth microdilution (Table 9, no superscript)
How it was run: as §1

[2] = test system: Escherichia coli ATCC 25922; assay: as above; conditions: ATCC 25922
How it was run: as §1

[3] = test system: Staphylococcus epidermidis ATCC 12228; assay: as above; conditions: ATCC 12228
How it was run: as §1

[4] = test system: Pseudomonas aeruginosa ATCC 27853; assay: as above; conditions: ATCC 27853
How it was run: as §1

[5] = test system: Propionibacterium acnes ATCC 6919; assay: MIC, agar dilution method NCCLS M11-A6, Brucella agar, anaerobic (Table 9, superscript c); conditions: ATCC 6919
How it was run: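 Agar dilution per NCCLS M11-A6 on Brucella agar; final inoculum 1.5×10^8 CFU/milliliter applied to plates, incubated 48-96 hours at 37° C. under anaerobic (GasPak) conditions. MIC = lowest peptide concentration with no colony growth.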

[6] = test system: Candida albicans ATCC 18804; assay: MIC in yeasts, NCCLS M27-A2 broth microdilution, RPMI 1640 (Table 9, letter e); conditions: ATCC 18804
How it was run: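 Broth microdilution per NCCLS M27-A2 in RPMI 1640 with glutamine and phenol red, final inoculum 0.5×10^3–2.5×10^3 CFU/milliliter. Incubated 24 to 48 hours at 37° C; MIC is the lowest peptide concentration with no visible growth.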

MIC S. aureus [1]	MIC S. dublin (Salmonella dublin (Lane))	MIC E. coli [2]	MIC S. epidermidis [3]	MIC P. aeruginosa [4]	MIC P. acnes [5]	MIC C. albicans [6]	SMILES
4 µg/mL (≈ 2.89 µM)	>64 µg/mL	32 µg/mL (≈ 23.1 µM)	2 µg/mL (≈ 1.45 µM)	32 µg/mL (≈ 23.1 µM)	>64c ug/mL	>64e ug/mL	CCCCCCCCCCCC(=O)N[C@@H](CCCNC(=N)N)C(=O)N[C@@H](CO)C(=O)N[C@@H](CCCNC(=N)N)C(=O)N[C@@H](Cc1c[nH]c2ccccc12)C(=O)N[C@@H](CCCNC(=N)N)C(=O)N[C@@H](CC(=O)O)C(=O)N[C@H](C(=O)N[C@@H](C)C(=O)N[C@@H](CCCNC(=N)N)C(N)=O)C(C)C [Peptide 101, Lauryl-RSRWRDVAR-NH2] (Lauroyl-RSRWRDVAR-NH2)
8 µg/mL (≈ 4.87 µM)	8 µg/mL (≈ 4.87 µM)	8 µg/mL (≈ 4.87 µM)	4 µg/mL (≈ 2.43 µM)	8 µg/mL (≈ 4.87 µM)	8c ug/mL	32e ug/mL	CCCCCCCCCCCC(=O)N[C@H](CCCNC(=N)N)C(=O)N[C@H](CO)C(=O)N[C@H](CCCNC(=N)N)C(=O)N[C@H](Cc1c[nH]c2ccccc12)C(=O)N[C@H](CCCNC(=N)N)C(=O)N[C@H](CC(=O)O)C(=O)N[C@@H](C(=O)N[C@H](C)C(=O)N[C@H](CCCNC(=N)N)C(=O)N[C@H](CC(N)=O)C(=O)N[C@H](Cc1ccccc1)C(N)=O)C(C)C [Peptide 116, Lauryl-rsrwrdvarnf-NH2] (Lauroyl-[dR][dS][dR][dW][dR][dD][dV][dA][dR][dN][dF]-NH2)
8 µg/mL (≈ 5.79 µM)	>64 µg/mL	64 µg/mL (≈ 46.3 µM)	8 µg/mL (≈ 5.79 µM)	32 µg/mL (≈ 23.1 µM)	16c ug/mL	32e ug/mL	CCCCCCCCCCCC(=O)N[C@H](CCCNC(=N)N)C(=O)N[C@H](CO)C(=O)N[C@H](CCCNC(=N)N)C(=O)N[C@H](Cc1c[nH]c2ccccc12)C(=O)N[C@H](CCCNC(=N)N)C(=O)N[C@H](CC(=O)O)C(=O)N[C@@H](C(=O)N[C@H](C)C(=O)N[C@H](CCCNC(=N)N)C(N)=O)C(C)C [Peptide 118, Lauryl-rsrwrdvar-NH2] (Lauroyl-[dR][dS][dR][dW][dR][dD][dV][dA][dR]-NH2)
4 µg/mL (≈ 2.37 µM)	16 µg/mL (≈ 9.48 µM)	8 µg/mL (≈ 4.74 µM)	2 µg/mL (≈ 1.18 µM)	8 µg/mL (≈ 4.74 µM)	8c ug/mL	16e ug/mL	CCCCCCCCCCCC(=O)N[C@H](CCCNC(=N)N)C(=O)N[C@H](Cc1c[nH]c2ccccc12)C(=O)N[C@H](CCCNC(=N)N)C(=O)N[C@H](CC(=O)O)C(=O)N[C@@H](C(=O)N[C@H](C)C(=O)N[C@H](CCCNC(=N)N)C(=O)N[C@H](CC(N)=O)C(=O)N[C@H](Cc1ccccc1)C(=O)N[C@H](CCSC)C(=O)N[C@H](CCCNC(=N)N)C(N)=O)C(C)C [Peptide 130, Lauryl-rwrdvarnfmr-NH2] (Lauroyl-[dR][dW][dR][dD][dV][dA][dR][dN][dF][dM][dR]-NH2)
4 µg/mL (≈ 2.25 µM)	8 µg/mL (≈ 4.51 µM)	8 µg/mL (≈ 4.51 µM)	2 µg/mL (≈ 1.13 µM)	8 µg/mL (≈ 4.51 µM)	2c ug/mL	16e ug/mL	CCCCCCCCCCCC(=O)N[C@H](CO)C(=O)N[C@H](CCCNC(=N)N)C(=O)N[C@H](Cc1c[nH]c2ccccc12)C(=O)N[C@H](CCCNC(=N)N)C(=O)N[C@H](CC(=O)O)C(=O)N[C@@H](C(=O)N[C@H](C)C(=O)N[C@H](CCCNC(=N)N)C(=O)N[C@H](CC(N)=O)C(=O)N[C@H](Cc1ccccc1)C(=O)N[C@H](CCSC)C(=O)N[C@H](CCCNC(=N)N)C(N)=O)C(C)C [Peptide 131, Lauryl-srwrdvarnfmr-NH2] (Lauroyl-[dS][dR][dW][dR][dD][dV][dA][dR][dN][dF][dM][dR]-NH2)

Continued, compound first:

SMILES	MIC S. aureus [1]	MIC S. dublin (Salmonella dublin (Lane))	MIC E. coli [2]	MIC S. epidermidis [3]	MIC P. aeruginosa [4]	MIC P. acnes [5]	MIC C. albicans [6]
CCCCCCCCCCCC(=O)N[C@@H](CCCNC(=N)N)C(=O)N[C@@H](CO)C(=O)N[C@@H](CCCNC(=N)N)C(=O)N[C@@H](Cc1c[nH]c2ccccc12)C(=O)N[C@@H](CCCNC(=N)N)C(=O)N[C@@H](CC(=O)O)C(=O)N[C@H](C(=O)N[C@@H](C)C(N)=O)C(C)C [Peptide 102, Lauryl-RSRWRDVA-NH2] (Lauroyl-RSRWRDVA-NH2)	4 µg/mL (≈ 3.26 µM)	>64 µg/mL	>64 µg/mL	8 µg/mL (≈ 6.52 µM)	64 µg/mL (≈ 52.2 µM)	>64c ug/mL	64e ug/mL
CCCCCCCCCCCC(=O)N[C@@H](CO)C(=O)N[C@@H](CCCNC(=N)N)C(=O)N[C@@H](Cc1c[nH]c2ccccc12)C(=O)N[C@@H](CCCNC(=N)N)C(=O)N[C@@H](CC(=O)O)C(=O)N[C@H](C(=O)N[C@@H](C)C(N)=O)C(C)C [Peptide 104, Lauryl-SRWRDVA-NH2] (Lauroyl-SRWRDVA-NH2)	4 µg/mL (≈ 3.74 µM)	>64 µg/mL	>64 µg/mL	>64 µg/mL	>64 µg/mL	>64c ug/mL	>64e ug/mL
CCCCCCCCCCCC(=O)N[C@H](CCCNC(=N)N)C(=O)N[C@H](CO)C(=O)N[C@H](CCCNC(=N)N)C(=O)N[C@H](Cc1c[nH]c2ccccc12)C(=O)N[C@H](CCCNC(=N)N)C(=O)N[C@H](CC(=O)O)C(=O)N[C@@H](C(N)=O)C(C)C [Peptide 120, Lauryl-rsrwrdv-NH2] (Lauroyl-[dR][dS][dR][dW][dR][dD][dV]-NH2)	16 µg/mL (≈ 13.8 µM)	>64 µg/mL	>64 µg/mL	16 µg/mL (≈ 13.8 µM)	64 µg/mL (≈ 55.4 µM)	64c ug/mL	64e ug/mL
CCCCCCCCCCCC(=O)N[C@H](CCCNC(=N)N)C(=O)N[C@H](Cc1c[nH]c2ccccc12)C(=O)N[C@H](CCCNC(=N)N)C(=O)N[C@H](CC(=O)O)C(=O)N[C@@H](C(=O)N[C@H](C)C(=O)N[C@H](CCCNC(=N)N)C(N)=O)C(C)C [Peptide 122, Lauryl-rwrdvar-NH2] (Lauroyl-[dR][dW][dR][dD][dV][dA][dR]-NH2)	8 µg/mL (≈ 7.02 µM)	32 µg/mL (≈ 28.1 µM)	64 µg/mL (≈ 56.2 µM)	8 µg/mL (≈ 7.02 µM)	16 µg/mL (≈ 14 µM)	32c ug/mL	32e ug/mL
CCCCCCCCCCCC(=O)N[C@H](CCCNC(=N)N)C(=O)N[C@H](CC(=O)O)C(=O)N[C@@H](C(=O)N[C@H](C)C(=O)N[C@H](CCCNC(=N)N)C(=O)N[C@H](CC(N)=O)C(=O)N[C@H](Cc1ccccc1)C(=O)N[C@H](CCSC)C(=O)N[C@H](CCCNC(=N)N)C(N)=O)C(C)C [Peptide 128, Lauryl-rdvarnfmr-NH2] (Lauroyl-[dR][dD][dV][dA][dR][dN][dF][dM][dR]-NH2)	16 µg/mL (≈ 11.9 µM)	32 µg/mL (≈ 23.8 µM)	32 µg/mL (≈ 23.8 µM)	8 µg/mL (≈ 5.94 µM)	32 µg/mL (≈ 23.8 µM)	16c ug/mL	32e ug/mL
CCCCCCCCCCCC(=O)N[C@H](CCCNC(=N)N)C(=O)N[C@H](CO)C(=O)N[C@H](CCCNC(=N)N)C(=O)N[C@H](CC(C)C)C(=O)N[C@H](CCCNC(=N)N)C(=O)N[C@H](CC(=O)O)C(=O)N[C@H](CC(C)C)C(=O)N[C@H](CC(C)C)C(=O)N[C@H](CCCNC(=N)N)C(=O)N[C@H](CC(N)=O)C(=O)N[C@H](CC(C)C)C(=O)N[C@H](C)C(=O)N[C@H](CCCNC(=N)N)C(N)=O [Peptide 132, Lauryl-rsrlrdllrnlar-NH2] (Lauroyl-[dR][dS][dR][dL][dR][dD][dL][dL][dR][dN][dL][dA][dR]-NH2)	4 µg/mL (≈ 2.2 µM)	4 µg/mL (≈ 2.2 µM)	4 µg/mL (≈ 2.2 µM)	2 µg/mL (≈ 1.1 µM)	32 µg/mL (≈ 17.6 µM)	8c ug/mL	4e ug/mL
CCCCCCCCCCCC(=O)N[C@H](CCCNC(=N)N)C(=O)N[C@H](CO)C(=O)N[C@H](CCCNC(=N)N)C(=O)N[C@H](Cc1c[nH]c2ccccc12)C(=O)N[C@H](CCCNC(=N)N)C(=O)N[C@H](CC(=O)O)C(=O)N[C@H](CC(C)C)C(=O)N[C@H](CC(C)C)C(=O)N[C@H](CCCNC(=N)N)C(=O)N[C@H](CC(N)=O)C(=O)N[C@H](CC(C)C)C(=O)N[C@H](CCSC)C(=O)N[C@H](CCCNC(=N)N)C(N)=O [Peptide 133, Lauryl-rsrwrdllrnlmr-NH2] (Lauroyl-[dR][dS][dR][dW][dR][dD][dL][dL][dR][dN][dL][dM][dR]-NH2)	4 µg/mL (≈ 2.05 µM)	8 µg/mL (≈ 4.1 µM)	16 µg/mL (≈ 8.19 µM)	2 µg/mL (≈ 1.02 µM)	32 µg/mL (≈ 16.4 µM)	2c ug/mL	2e ug/mL
